Reference: patent US10131652B2, “Pyrimidinyloxy benzene derivatives as herbicides” (E. I. DU PONT DE NEMOURS AND COMPANY, priority 2014, dated 2018)

Experiments:
Assay type in all cases: in vivo
[1] = tested on: velvetleaf (Abutilon theophrasti); assay: Test D pre-/postemergence plant response; settings: Postemergence
How it was run: (§1)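 Visual injury scoring (0–100) at 13 to 15 days in greenhouse. Preemergence sprays on seeded loam/sand; postemergence sprays on 1–4 leaf plants.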

[2] = tested on: johnsongrass (Sorghum halepense); assay: Test D pre-/postemergence plant response; settings: Postemergence; for Plant response rating, Johnsongrass: scale 0 to 100, 0 no effect, 100 complete control
How it was run: as §1

[3] = tested on: soybean (Glycine max); assay: Test D pre-/postemergence plant response; settings: Postemergence
How it was run: as §1

[4] = tested on: large (Lg) crabgrass (Digitaria sanguinalis); assay: Test D pre-/postemergence plant response; settings: Postemergence; for Plant response rating, Crabgrass, Large: scale 0 to 100, 0 no effect, 100 complete control
How it was run: as §1

[5] = tested on: oilseed rape (Brassica napus); assay: Test D pre-/postemergence plant response; settings: Postemergence
How it was run: as §1

[6] = tested on: winter wheat (Triticum aestivum); assay: Test D pre-/postemergence plant response; settings: Postemergence
How it was run: as §1

[7] = tested on: yellow nutsedge (Cyperus esculentus); assay: Test D pre-/postemergence plant response; settings: Postemergence
How it was run: as §1

[8] = tested on: ducksalad (Heteranthera limosa); assay: Test C flooded paddy test plant response; settings: Flood, 250 g ai/ha; scale of 0 to 100 where 0 is no effect and 100 is complete control; 13 to 15 days
How it was run: (§2)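 Scored visually on a 0–100 scale (100 = complete control) against untreated plants 13 to 15 days after treatment in the greenhouse. Compounds went into paddy water of pots flooded to 3 cm, holding 2-leaf-stage plants.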

[9] = tested on: rice (Oryza sativa); assay: Test C flooded paddy test plant response; settings: Flood, 250 g ai/ha; scale of 0 to 100 where 0 is no effect and 100 is complete control; 13 to 15 days
How it was run: as §2

[10] = tested on: small-flower umbrella sedge (Cyperus difformis); assay: Test C flooded paddy test plant response; settings: Flood, 250 g ai/ha; scale of 0 to 100 where 0 is no effect and 100 is complete control; 13 to 15 days
How it was run: as §2

[11] = tested on: barnyardgrass (Echinochloa crus-galli); assay: Test C flooded paddy test plant response; settings: Flood, 250 g ai/ha; scale of 0 to 100 where 0 is no effect and 100 is complete control; 13 to 15 days
How it was run: as §2

[12] = tested on: chickweed (common chickweed, Stellaria media); assay: Test D postemergence plant response; settings: for Plant response rating, Chickweed: scale 0 to 100, 0 no effect, 100 complete control
How it was run: (§3)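 Postemergence spray on plants 2–18 cm tall (1- to 4-leaf stage), grown in pots of peat/vermiculite medium. Plants were kept in a greenhouse for 13–15 days, then visually rated against untreated controls on a 0 (no effect) to 100 (complete control) scale.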

[13] = tested on: kochia (Kochia scoparia); assay: Test D postemergence plant response; settings: for Plant response rating, Kochia: scale 0 to 100, 0 no effect, 100 complete control
How it was run: as §3

[14] = tested on: wild oat (Avena fatua); assay: Test D postemergence plant response
How it was run: as §3

[15] = 31 g ai/ha, scale 0 to 100 (0 no effect, 100 complete control)
[16] = 62 g ai/ha, scale 0 to 100, 0 no effect, 100 complete control
[17] = 125 g ai/ha, scale 0 to 100, 0 no effect, 100 complete control

## Clc1cnc(Oc2ccccc2-c2ccon2)nc1 [Compound 185]
[1]; 16 g ai/ha
  Plant response rating (scale 0 to 100), Velvetleaf: 5
[1]; [15]
  Velvetleaf plant response rating: 10
[1]; [16]
  Velvetleaf plant response rating: 10
[1]; [17]
  Plant response rating, Velvetleaf: 25
[2]; 16 g ai/ha
  Plant response rating (scale 0 to 100), Johnsongrass: 0
[2]; [15]
  Johnsongrass plant response rating: 0
[2]; 62 g ai/ha
  Plant response rating, Johnsongrass: 5
[2]; 125 g ai/ha
  Plant response rating, Johnsongrass: 5
[3]; 16 g ai/ha
  Plant response rating (scale 0 to 100), Soybean: 15
[3]; [15]
  Soybean plant response rating: 30
[3]; [16]
  Soybean plant response rating: 35
[3]; [17]
  Plant response rating, Soybean: 45
[4]; 16 g ai/ha
  Plant response rating (scale 0 to 100), Crabgrass, Large: 0
[4]; [15]
  Crabgrass, Large plant response rating: 0
[4]; 62 g ai/ha
  Plant response rating, Crabgrass, Large: 10
[4]; 125 g ai/ha
  Plant response rating, Crabgrass, Large: 10
[5]; 16 g ai/ha
  Plant response rating (scale 0 to 100), Oilseed Rape: 0
[5]; [15]
  Oilseed Rape plant response rating: 0
[5]; [16]
  Oilseed Rape plant response rating: 0
[5]; [17]
  Plant response rating, Oilseed Rape: 0
[6]; 16 g ai/ha
  Plant response rating (scale 0 to 100), Wheat: 0
[6]; [15]
  Wheat plant response rating: 0
[6]; [16]
  Wheat plant response rating: 0
[6]; [17]
  Plant response rating, Wheat: 0
[7]; 16 g ai/ha
  Plant response rating (scale 0 to 100), Nutsedge, Yellow: 0
[7]; [15]
  Nutsedge, Yellow plant response rating: 0
[7]; [16]
  Nutsedge, Yellow plant response rating: 0
[7]; [17]
  Plant response rating, Nutsedge, Yellow: 30
[8]
  Ducksalad plant response rating: 0
[9]
  Rice plant response rating: 0
[10]
  Sedge, Umbrella plant response rating: 0
[11]
  Barnyardgrass plant response rating: 0
[12]; 16 g ai/ha
  Plant response rating (scale 0 to 100), Chickweed: 0
[12]; [15]
  Chickweed plant response rating: 0
[12]; 62 g ai/ha
  Plant response rating, Chickweed: 5
[12]; 125 g ai/ha
  Plant response rating, Chickweed: 5
[13]; 16 g ai/ha
  Plant response rating (scale 0 to 100), Kochia: 0
[13]; [15]
  Kochia plant response rating: 0
[13]; 62 g ai/ha
  Plant response rating, Kochia: 5
[13]; 125 g ai/ha
  Plant response rating, Kochia: 30
[14]; 16 g ai/ha
  Plant response rating (scale 0 to 100), Oat, Wild: 0
[14]; [15]
  Oat, Wild plant response rating: 0
[14]; [16]
  Oat, Wild plant response rating: 0
[14]; [17]
  Plant response rating, Oat, Wild: 5
